{"source": "patent US10954244B2", "about": "“Compounds and uses thereof” (Kala Pharmaceuticals, Inc., priority 2013, dated 2021)", "key": {"[1]": {"experiment": "Physical and chemical stability of I-2 solutions at room temperature", "assay_type": "physicochemical", "conditions": "formulation buffered in 20 mM Tris (pH 8), F127", "protocol": "Solutions of I-2 were formulated with F127 or Tween 80, and under a range of pH values. Briefly, I-2 was first completely solubilized using an acidic solution (0.1 N HCl) at a high concentration of ˜5% (w/v). The final formulation was diluted to a solution consisting of 0.5% (w/v) I-2 into buffered solution containing F127 or Tween 80 as described in Table 5. Following dilution, the pH of the formulations was measured using pH indicator strips (PEHANON) and confirmed to be within expected range (±0.5 units of target pH).\nPhysical and chemical stability of the solutions at room temperature (20-25° C.) were assessed after 7-10 days (tfinal). Physical instability in a solution can manifest as the precipitation and sedimentation of the drug of interest and excipients over time. To assess physical stability, the formulations at tfinal were first filtered through a 300 kDa modified polyethersulfone filter membrane (Nanosep) to remove any precipitate in the solution. The concentration of I-2 in the filtrates was then measured and compared to that at t=0. The purity of I-2 in the unfiltered solution was also evaluated at tfinal, to further confirm chemical stability. This parameter is defined by the area under the signal peak that is attributed to compound I-2 as a percentage of all peaks reported by in the sample by HPLC (% peak area)."}, "[2]": {"experiment": "Draize-Ocular Irritation assessment", "assay_type": "in vivo, Dutch-belted rabbits", "conditions": "topical I-2 solution during the PK studies"}, "[3]": {"experiment": "Mobility of nanoparticles in human cervicovaginal mucus (dark field microscopy)", "conditions": "low pH of CVM", "protocol": "In order to determine whether the generated nanoparticles have reduced interactions with mucins and are therefore able to move within mucus without becoming trapped, particles were incubated with human cervicovaginal mucus (CVM) and observed via dark field microscopy. In a typical experiment, 51 μL of the nanoparticle suspension was added to 20 μl of CVM. Observations were made in a minimum of three distinct and randomly selected areas of the CVM sample. Control particles with known behavior were used to qualify the CVM sample as appropriate for the assay."}, "[4]": {"experiment": "Milling with Pluronic F127 to mucus penetrating particles, particle size by dynamic light scattering", "assay_type": "physicochemical", "conditions": "formulated as MPP, milled with Pluronic F127, DPBS buffered", "from_the_text": "Compounds of the present invention synthesized in accordance with the preceding Examples were formulated as mucus penetrating particles (MPP). Specifically, compounds I-2, compound I-5, and compound I-6 were each milled in the presence of Pluronic F127 (F127) to determine whether F127 1) aids particle size reduction to several hundreds of nanometers and 2) physically (non-covalently) coats the surface of generated nanoparticles with a mucoinert coating that would minimize particle interactions with mucus constituents and prevent mucus adhesion.\nA milling procedure was employed in which an aqueous dispersion containing coarse drug particles and Pluronic F127 (F127) was milled with grinding medium until particle size was reduced below 400 nm as measured by dynamic light scattering. Table 4 lists the size of particles and polydispersity index (a measure of the width of the particle size distribution) generated using this technique. In this example suspensions were buffered using DPBS (Dulbecco's Phosphate-Buffered Saline) which yields a suspension that is both isotonic and has a physiologically relevant pH."}}, "data": [{"smiles": "Cc1cc(C(=O)Nc2cc(Oc3ccc4nc(NC(=O)CN5CC[C@H](N(C)C)C5)cn4n3)ccc2C)n(C)n1", "note": "[Compound I-2]", "values": [{"measurement": "physical stability of the solution", "setting": "[1]", "result": "major physical instability (i.e., precipitation)"}, {"measurement": "Draize-Ocular Irritation", "setting": "[2]", "result": "no irritation was seen"}, {"measurement": "solubility in CVM", "setting": "[3]", "result": "soluble in the low pH of CVM"}]}, {"smiles": "Cc1cc(C(=O)Nc2cc(Oc3ccc4nc(NC(=O)NC5COC5)cn4n3)ccc2C)n(C)n1", "note": "[Compound I-5]", "values": [{"measurement": "Polydispersity Index (PDI)", "setting": "[4]", "result": 0.160}]}, {"smiles": "Cc1ccc(Oc2ccc3nc(NC(=O)CC4COC4)cn3n2)cc1NC(=O)c1cccc(F)c1", "note": "[Compound I-6]", "values": [{"measurement": "Particle Size", "setting": "[4]; dynamic light scattering", "result": 245, "unit": "nm"}]}]}
